Values of other authors in paper PMC5087393, “A Toolbox of Genetically Encoded FRET-Based Biosensors for Rapid L-Lysine Analysis” (Sensors (Basel, Switzerland), 2016).

How the values were obtained:
[1] = target: LAO-binding protein from S. typhimurium; set-up: method as in PMID 1400387; settings: 10 mM NaPi buffer, pH 7.0; read-out: Kd (equilibrium dialysis)
[2] = system: LAO-binding protein of E. coli; settings: read-out: Kd (equilibrium dialysis); without permutation and fluorescent proteins; 10 mM KPi buffer, pH 7.0, 50 mM NaCl

Row | SMILES | Kd [1] [nM] | Kd [2] [nM]
1 | N[C@@H](Cc1c[nH]cn1)C(=O)O [L-histidine] | 500 | 
2 | NCCCC[C@H](N)C(=O)O [L-lysine] | 15 | 3000
3 | N=C(N)NCCC[C@H](N)C(=O)O [L-arginine] | 14 | 1500
